Measurements taken from patent publication US20260224524A1, “A PHARMACEUTICAL COMPOSITION TARGETING MUTANT P53 AND HER2” (DR DOZO LABORATORIES, priority 2023, published 2026).
In brackets after ≈: the same amount, converted by molar mass.

Legend:
[1] = tested on: Human Pancreatic Cancer Cell Line Mia-Pa-Ca-2; assay: Growth inhibition (% control growth, LC50, TGI, GI50) Mia-Pa-Ca-2; assay type: cell-based; settings: for GI50: Homo sapiens
Protocol: The therapeutic effect of SA1 (peak 5) and SA2 (peak 4) is evaluated against human pancreatic cancer cell line Mia-Pa-Ca-2 by calculating the percentage growth inhibition, drug concentration of test compound needed to inhibit cell growth by 50% (GI50) values.
The therapeutic effect of SACC is evaluated against human […] cancer cell line Mia-Pa-Ca-2 by calculating the percentage growth inhibition, drug concentration of test compound needed to inhibit cell growth by 50% (GI50) values.

[2] = Human tumour xenograft MDA-MB-231 model, survival; assay type: in vivo; settings: for % Survival: Group B, 2.5 mg/kg i.v. day 1, 5, 9
Protocol: The therapeutic effect of SACC is evaluated against triple-negative breast cancer cell line MDA-MB-231 by analysing tumour volume and relative tumour volume. The study involved the use of six mice. These mice were administrated treatment according to the following Groups: […]

[3] = tested on: Human Breast Cancer Cell Line MDA-MB-231; assay: Growth inhibition (% control growth, LC50, TGI, GI50) MDA-MB-231; assay type: cell-based
Protocol: The therapeutic effect of […] (peak 5) and SA2 (peak 4) is evaluated against human […] cancer cell line MDA-MB-231 by calculating the percentage growth inhibition, drug concentration of test compound needed to inhibit cell growth by 50% (GI50) values.
The therapeutic effect of SACC is evaluated against human […] cancer cell lines MDA-MB-231 by calculating the percentage growth inhibition, drug concentration of test compound needed to inhibit cell growth by 50% (GI50) values.

COc1cccc2c1C(=O)c1c(O)c3c(c(O)c1C2=O)C[C@@](O)(C(=O)CO)C[C@@H]3O[C@H]1C[C@H](N)[C@H](O)[C@H](C)O1 [ADR, Adriamycin]
GI50 ([1]; MIA PaCa-2, Mia-Pa-Ca-2, calculated from graph): < 10 µg/mL
GI50 ([1]; MIA PaCa-2, Mia-Pa-Ca-2, Molar drug concentrations calculated from graph): 4.75 µg/mL (≈ 8.74 µM)
% Control Growth ([1]; Mia-Pa-Ca-2, 10 μg/ml, Average Values): −89.7%
% Control Growth ([1]; Mia-Pa-Ca-2, 10 μg/ml, Experiment 1): −88.7%
% Control Growth ([1]; Mia-Pa-Ca-2, 10 μg/ml, Experiment 2): −89.2%
% Control Growth ([1]; Mia-Pa-Ca-2, 10 μg/ml, Experiment 3): −91.2%
% Control Growth ([1]; Mia-Pa-Ca-2, 20 μg/ml, Average Values): −91.1%
% Control Growth ([1]; Mia-Pa-Ca-2, 20 μg/ml, Experiment 1): −91.3%
% Control Growth ([1]; Mia-Pa-Ca-2, 20 μg/ml, Experiment 2): −90.4%
% Control Growth ([1]; Mia-Pa-Ca-2, 20 μg/ml, Experiment 3): −91.5%
% Control Growth ([1]; Mia-Pa-Ca-2, 40 μg/ml, Average Values): −91.5%
% Control Growth ([1]; Mia-Pa-Ca-2, 40 μg/ml, Experiment 1): −91.4%
% Control Growth ([1]; Mia-Pa-Ca-2, 40 μg/ml, Experiment 2): −92.3%
% Control Growth ([1]; Mia-Pa-Ca-2, 40 μg/ml, Experiment 3): −91.0%
% Control Growth ([1]; Mia-Pa-Ca-2, 80 μg/ml, Average Values): −84.7%
% Control Growth ([1]; Mia-Pa-Ca-2, 80 μg/ml, Experiment 1): −84.1%
% Control Growth ([1]; Mia-Pa-Ca-2, 80 μg/ml, Experiment 2): −87.5%
% Control Growth ([1]; Mia-Pa-Ca-2, 80 μg/ml, Experiment 3): −82.3%
% Control Growth ([1]; Mia-Pa-Ca-2, 10^−4M, Average Values): −89.6%
% Control Growth ([1]; Mia-Pa-Ca-2, 10^−4M, Experiment 1): −88.2%
% Control Growth ([1]; Mia-Pa-Ca-2, 10^−4M, Experiment 2): −89.7%
% Control Growth ([1]; Mia-Pa-Ca-2, 10^−4M, Experiment 3): −91.0%
% Control Growth ([1]; Mia-Pa-Ca-2, 10^−5M, Average Values): −87.8%
% Control Growth ([1]; Mia-Pa-Ca-2, 10^−5M, Experiment 1): −88.7%
% Control Growth ([1]; Mia-Pa-Ca-2, 10^−5M, Experiment 2): −87.4%
% Control Growth ([1]; Mia-Pa-Ca-2, 10^−5M, Experiment 3): −87.3%
% Control Growth ([1]; Mia-Pa-Ca-2, 10^−6M, Average Values): −75.8%
% Control Growth ([1]; Mia-Pa-Ca-2, 10^−6M, Experiment 1): −77.3%
% Control Growth ([1]; Mia-Pa-Ca-2, 10^−6M, Experiment 2): −75.7%
% Control Growth ([1]; Mia-Pa-Ca-2, 10^−6M, Experiment 3): −74.5%
% Control Growth ([1]; Mia-Pa-Ca-2, 10^−7M, Average Values): −60.2%
% Control Growth ([1]; Mia-Pa-Ca-2, 10^−7M, Experiment 1): −3.2%
% Control Growth ([1]; Mia-Pa-Ca-2, 10^−7M, Experiment 2): −88.2%
% Control Growth ([1]; Mia-Pa-Ca-2, 10^−7M, Experiment 3): −89.3%
TGI ([1]; Mia-Pa-Ca-2, Molar drug concentrations calculated from graph): 4.69 µg/mL (≈ 8.63 µM)
TGI ([1]; Mia-Pa-Ca-2, calculated from graph): <10 µg/mL
% Survival ([2]; day 1): 100%
% Survival ([2]; day 5): 100%
% Survival ([2]; day 9): 100%
% Survival ([2]; day 12): 100%
% Survival ([2]; day 15): 100%
% Survival ([2]; day 18): 100%
% Survival ([2]; day 21): 100%
% Survival ([2]; day 25): 100%
% Survival ([2]; day 30): 83%
survival rate ([2]; till 25 days): 100%
% Control Growth ([3]; 10 μg/ml, Average Values): −88.7%
% Control Growth ([3]; 10 μg/ml, Experiment 1): −90.5%
% Control Growth ([3]; 10 μg/ml, Experiment 3): −86.3%
% Control Growth ([3]; 20 μg/ml, Average Values): −83.1%
% Control Growth ([3]; 20 μg/ml, Experiment 2): −84.8%
% Control Growth ([3]; 20 μg/ml, Experiment 3): −79.3%
% Control Growth ([3]; 40 μg/ml, Average Values): −81.2%
% Control Growth ([3]; 40 μg/ml, Experiment 2): −82.5%
% Control Growth ([3]; 40 μg/ml, Experiment 3): −80.2%
% Control Growth ([3]; 80 μg/ml, Average Values): −74.8%
% Control Growth ([3]; 80 μg/ml, Experiment 1): −75.2%
% Control Growth ([3]; 80 μg/ml, Experiment 2): −78.1%
% Control Growth ([3]; 10^−4M, Average Values): −69.1%
% Control Growth ([3]; 10^−4M, Experiment 1): −68.3%
% Control Growth ([3]; 10^−4M, Experiment 2): −69.6%
% Control Growth ([3]; 10^−4M, Experiment 3): −69.4%
% Control Growth ([3]; 10^−5M, Average Values): −82.4%
% Control Growth ([3]; 10^−5M, Experiment 1): −80.5%
% Control Growth ([3]; 10^−5M, Experiment 2): −83.4%
% Control Growth ([3]; 10^−5M, Experiment 3): −83.3%
% Control Growth ([3]; 10^−6M, Average Values): −85.0%
% Control Growth ([3]; 10^−6M, Experiment 1): −83.1%
